Assay results as given in US5120752A, “Cyclopropyl derivative lipoxygenase inhibitors” (Abbott Laboratories, priority 1990, dated 1992).

Columns and labels:
[1] = test system: leukotriene biosynthesis; test: Inhibition of leukotriene biosynthesis in vivo after oral administration, rat peritoneal anaphylaxis model; settings: 200 μmol/kg oral (gavage), 1 h before antigen challenge; for inhibition in vivo at 200 µmol/kg: read-out: % Inhibition of Leukotrienes at 200 μmol/kg oral dose
Description: Inhibition of the biosynthesis of leukotrienes in vivo after oral administration of representative test compounds of this invention was determined using a rat peritoneal anaphylaxis model in a similar manner as that described by Young and coworkers (Young, P. R.; Dyer, R. D.; Carter, G. W. Fed. Proc., Fed. Am. Soc. Exp. Biol. 1985, 44, 1185). In this model rats were injected intraperitoneally (ip) with rabbit antibody to bovine serum albumin (BSA) and three hours later injected ip with BSA to induce an antgen-antibody response. Rats were sacrificed 15 minutes after this challenge and the peritoneal fluids were collected and analyzed for leukotriene levels. Test compounds were administered by gavage one hour prior to the antigen challenge. Percent inhibition values were determined by comparing the treatment group to the mean of the control group. The results of this assay, for representative compounds of the present invention, at an oral dose level of […] are presented in Table 2, and at an oral dose of […] in Table 3.

[2] = target: T1, 5-lipoxygenase (Rattus norvegicus, UniProt P12527); test: In vitro inhibition of 5-lipoxygenase (20,000×g supernatant from homogenized RBL-1 cells, radiolabeled arachidonic acid); type: biochemical; settings: 20,000×g supernatant of RBL-1 cells; triplicate; read-out: IC50 (in vitro inhibitory potency against 5-lipoxygenase)
T1 construct: 20,000×g supernatant from 1.5 million homogenized RBL-1 cells; endogenous in cells; host or cells: RBL-1 cells (20,000×g supernatant of homogenate)
T1 sequence (P12527 1-673): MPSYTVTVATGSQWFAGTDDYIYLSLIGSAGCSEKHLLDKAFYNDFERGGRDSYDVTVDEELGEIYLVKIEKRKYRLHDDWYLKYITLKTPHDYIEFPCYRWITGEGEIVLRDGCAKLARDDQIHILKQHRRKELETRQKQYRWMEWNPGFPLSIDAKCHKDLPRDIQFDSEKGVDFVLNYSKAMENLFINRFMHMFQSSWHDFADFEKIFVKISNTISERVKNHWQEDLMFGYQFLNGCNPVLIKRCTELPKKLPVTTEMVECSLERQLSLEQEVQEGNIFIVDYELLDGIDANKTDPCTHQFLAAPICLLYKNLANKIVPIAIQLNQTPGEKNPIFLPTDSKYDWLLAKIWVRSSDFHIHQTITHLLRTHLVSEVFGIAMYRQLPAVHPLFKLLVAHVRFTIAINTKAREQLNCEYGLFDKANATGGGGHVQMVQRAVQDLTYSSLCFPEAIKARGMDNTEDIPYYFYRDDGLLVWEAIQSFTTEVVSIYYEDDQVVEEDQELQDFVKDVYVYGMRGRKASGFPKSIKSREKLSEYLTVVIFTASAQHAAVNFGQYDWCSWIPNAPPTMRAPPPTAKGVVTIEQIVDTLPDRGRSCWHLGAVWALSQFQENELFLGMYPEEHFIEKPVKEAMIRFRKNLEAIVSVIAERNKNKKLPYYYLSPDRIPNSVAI
Description: Assays to determine 5-lipoxygenase inhibitory activity were performed in […] incubations containing the 20,000×g supernatant from 1.5 million homogenized RBL-1 cells and various concentrations of the test compound. Reactions were initiated by addition of radiolabeled arachidonic acid and terminated by acidification and ether extraction. Reaction products were separated from nonconverted substrate by thin layer chromatography and measured by liquid scintillation spectroscopy. All incubations were performed in triplicate. Inhibition of 5-lipoxygenase activity was calculated as the ratio of the amount of product formed in the presence and absence of inhibitor. IC50 values (concentration of compound producing 50% enzyme inhibition) were calculated by linear regression analysis of percentage inhibition versus log inhibitor concentration plots. (Dyer, R .D.; Haviv, F.; Hanel, A. M.; Bornemier, D. A.; Carter, G. W. Fed. Proc., Fed. Am. Soc. Exp. Biol. 1984, 43, 1462A).

[3] = test system: LTB4 biosynthesis in human whole blood; test: Inhibition of calcium ionophore-induced LTB4 biosynthesis in human whole blood; type: cell-based; settings: A23187 50 μM, 15 min preincubation, read-out: Inhibition of Leukotriene Biosynthesis IC50
Description: Inhibition of leukotriene biosynthesis was evaluated in an assay, involving calcium ionophore-induced LTB4 biosynthesis expressed by human whole blood. Heparinized (20 U/mL) human blood (0.3 mL) was preincubated with test compound or vehicle for 15 min. at 37° C. Eicosanoid biosynthesis was initiated by adding calcium ionophore (A23187) in DMSO to a final concentration of 50 μM and terminated after 30 min. by rapid cooling of the blood in an ice bath and centrifuging at 3° C. for 10 min at 2500×g. The plasma was mixed with 4 volumes of methanol and allowed to stand for at least 30 min. at 3° C. prior to centrifuging at 1800×g for 10 min. The level of LTB4 in aliquots of the methanol-plasma extract was analyzed by radio-immunoassay or enyme-immunoassay techniques.

Structure (SMILES)	IC50 [2] [nM]	IC50 [3] [nM]	inhibition in vivo at 200 µmol/kg [1] [%]	% Inhibition of Leukotrienes at 200 μmol/kg oral dose [1] [%]
NC(=O)N(O)C[C@@H]1C[C@H]1CCc1ccccc1 (relative stereo) [Example 33, N-(1-trans-(2-(2-phenylethyl)cyclopropyl)methyl)-N-hydroxyurea]			84	
CC(Oc1ccc([C@@H]2C[C@H]2CN(O)C(N)=O)cc1)c1ccccc1 (stereo partly drawn) [Example 23, N-(1-trans-(2-(4-(1-phenylethoxy)phenyl)cyclopropyl)methyl)-N-hydroxyurea]	100		93	
NC(=O)N(O)C[C@H]1C[C@H]1c1ccccc1 (relative stereo) [Example 16, N-(1-cis-(2-phenylcyclopropyl)methyl)-N-hydroxyurea]	2800		61	
CC(=O)N(O)C[C@@H]1C[C@H]1c1ccco1 (relative stereo) [Example 195, N-(1-trans-(2-(2-furanyl)cyclopropyl)methyl)-N-hydroxyacetamide]		190		
NC(=O)N(O)C[C@@H]1C[C@H]1c1ccc(Br)cc1 (relative stereo) [Example 35, N-(1-trans-(2-(4-bromophenyl)cyclopropyl)methyl)-N-hydroxyurea]			99	
CC(=O)N(O)C(C)[C@@H]1C[C@H]1c1cccs1 (stereo partly drawn) [Example 196, N-(1-trans-(2-(2-thienyl)cyclopropyl)ethyl)-N-hydroxyacetamide]		980		
NC(=O)N(O)C[C@@H]1C[C@H]1c1cccc(Oc2ccccc2)c1 (relative stereo) [Example 10, N-(1-trans-(2-(3-phenoxyphenyl)cyclopropyl)methyl)-N-hydroxyurea]	100		97	
NC(=O)N(O)C[C@@H]1C[C@H]1c1cccc(Oc2cnc3ccccc3c2)c1 (relative stereo) [Example 164, N-(1-trans-(2-(3-(3-quinonyloxy)phenyl)cyclopropyl)methyl)-N-hydroxyurea]		610		
CC(C)Cc1ccc([C@@H]2C[C@H]2C(C)N(O)C(N)=O)cc1 (stereo partly drawn) [Example 19, N-(1-trans-(2-(4-(2-methyl-1-propyl)phenyl)cyclopropyl)-ethyl)-N-hydroxyurea]			64	
CC(Oc1ccc([C@H]2[C@H](CN(O)C(N)=O)C2(C)C)cc1)c1ccccc1 (stereo partly drawn) [Example 25]	100		52	
CC([C@@H]1C[C@H]1c1cc2ccccc2s1)N(O)C(N)=O (stereo partly drawn) [Example 1, N-(1-trans-(2-(benzo[b]thien-2-yl)cyclopropyl)ethyl)-N-hydroxyurea]			62	
Cc1ccc([C@@H]2C[C@H]2C(C)N(O)C(N)=O)cc1 (stereo partly drawn) [Example 39, N-(1-trans-(2-(4-methylphenyl)cyclopropyl)ethyl)-N-hydroxyurea]			82	
CC(N(O)C(N)=O)[C@]1(C)C[C@H]1c1ccccc1 (stereo partly drawn) [Example 5, N-(1-trans-(1-methyl-2-phenylcyclopropyl)ethyl)-N-hydroxyurea]			90	
COc1ccc([C@@H]2C[C@H]2C(C)N(O)C(N)=O)cc1 (stereo partly drawn) [Example 22, N-(1-trans-(2-(4-methoxyphenyl)cyclopropyl)ethyl)-N-hydroxyurea]	900		96	
CNC(=O)N(O)C[C@@H]1C[C@H]1c1cccc(Oc2ccccc2)c1 (relative stereo) [Example 11, N-(1-trans-(2-(3-phenoxyphenyl)cyclopropyl)methyl)-N-hydroxy-N'-methylurea]	100		65	
NC(=O)N(O)C[C@@H]1C[C@H]1c1cc2ccccc2s1 (relative stereo) [Example 12]			68	
CC(C1CC1c1ccccc1)N(O)C(N)=O (stereo not drawn) [Example 9, N-(1-cis-(2-phenylcyclopropyl)ethyl)-N-hydroxyurea]	1800		61	
CNC(=O)N(O)C(C)[C@@H]1C[C@H]1c1cccc(Oc2ccccc2)c1 (stereo partly drawn) [Example 17, N-(1-trans-(2-(3-phenoxyphenyl)cyclopropyl)ethyl)-N-hydroxy-N'-methylurea]	70		81	
CC(=O)N(O)C(C)[C@@H]1C[C@H]1c1cc2ccccc2s1 (stereo partly drawn) [Example 28, N-(1-trans-(2-(benzo[b]thien-2-yl)cyclopropyl)ethyl)-N-hydroxyacetamide]	100		73	
CNC(=O)N(O)C[C@@H]1C[C@H]1c1cc2ccccc2s1 (relative stereo) [Example 13]			76	
CC(=O)N(O)C[C@@H]1C[C@H]1c1ccccc1 (relative stereo) [Example 27, N-(1-trans-(2-phenylcyclopropyl)methyl)-N-hydroxyacetamide]	1700		99	

The next lines start with results.

IC50 [2] [nM]	IC50 [3] [nM]	Structure (SMILES)	inhibition in vivo at 200 µmol/kg [1] [%]	% Inhibition of Leukotrienes at 200 μmol/kg oral dose [1] [%]
200		NC(=O)N(O)C[C@@H]1C[C@H]1c1ccccc1Oc1ccccc1 (relative stereo) [Example 40, N-(1-trans-(2-(2-phenoxyphenyl)cyclopropyl)methyl)-N-hydroxyurea]	97	
300		Cc1ccc([C@@H]2C[C@H]2CN(O)C(N)=O)cc1 (relative stereo) [Example 47, N-(1-trans-(2-(4-methylphenyl)cyclopropyl)methyl)-N-hydroxyurea]	100	
	830	CNC(=O)N(O)C(C)[C@@H]1C[C@H]1c1ccoc1 (stereo partly drawn) [Example 191, N-(1-trans-(2-(3-furanyl)cyclopropyl)ethyl)-N-hydroxy-N'-methylurea]		
1100		Cc1ccc([C@@H]2C[C@H]2C(C)N(O)C(N)=O)o1 (relative stereo) [Example 26, N-(1-trans-((5-methylfuran-2-yl)cyclopropyl)ethyl)-N-hydroxyurea]		92
300		NC(=O)N(O)CC[C@@H]1C[C@H]1c1ccccc1 (relative stereo) [Example 34, N-(2-trans-(2-phenylcyclopropyl)ethyl)-N-hydroxyurea]	100	
900		COc1ccc([C@@H]2C[C@H]2C(C)N(O)C(C)=O)cc1 (stereo partly drawn) [Example 29, N-(1-trans-(2-(4-methoxyphenyl)cyclopropyl)ethyl)-N-hydroxyacetamide]	96	
100		CC([C@@H]1C[C@H]1c1ccc(Br)cc1)N(O)C(N)=O (stereo partly drawn) [Example 37, N-(1-trans-(2-(4-bromophenyl)cyclopropyl)ethyl)-N-hydroxyurea]	93	
1800		NC(=O)N(O)C[C@@H]1C[C@H]1c1ccccc1 (relative stereo) [Example 4, N-1-(trans-(2-phenylcyclopropyl)methyl)-N-hydroxyurea]	97	
1600		CC([C@@H]1C[C@H]1c1ccccc1)N(O)C(N)=O (stereo partly drawn) [Example 3, N-(1-trans-(2-phenylcyclopropyl)ethyl)-N-hydroxyurea]	100	
